Measured values from patent US6515103B1 (priority 1996, dated 2003).
Where a SMILES comes first, the peptide text is derived from it. [ ]: non-standard residue; d: D form. Gla = N[C@@H](CC(C(=O)O)C(=O)O)C(=O)O

What was measured:
NMDA receptor = type: binding
in vitro = conditions: Frings audiogenic, mouse

| SMILES | IC50 (NMDA receptor) | half-life (in vitro; brain homogenate) | half-life (in vitro; tissue homogenate) |
| --- | --- | --- | --- |
| CC[C@H](C)[C@H](NC(=O)[C@H](CC(C)C)NC(=O)[C@H](C)NC(=O)[C@H](CCC(N)=O)NC(=O)[C@H](CC(N)=O)NC(=O)[C@H](C)NC(=O)[C@H](CCC(N)=O)NC(=O)[C@H](CC(C)C)NC(=O)[C@H](CC(C(=O)O)C(=O)O)NC(=O)[C@H](CC(C(=O)O)C(=O)O)NC(=O)[C@H](CCC(=O)O)NC(=O)CN)C(=O)N[C@@H](CCCNC(=N)N)C(N)=O [(A^7,10)1-13] (H-GE[Gla][Gla]LQANQALIR-NH2; N-terminus assumed) | 253 nM | – | – |
| CC[C@H](C)[C@H](NC(=O)[C@H](CC(C)C)NC(=O)[C@H](C)NC(=O)[C@H](CCC(N)=O)NC(=O)[C@H](CC(N)=O)NC(=O)[C@H](C)NC(=O)[C@H](CCC(N)=O)NC(=O)[C@H](CC(C)C)NC(=O)[C@H](CC(C(=O)O)C(=O)O)NC(=O)[C@H](CC(C(=O)O)C(=O)O)NC(=O)[C@H](CCC(=O)O)NC(=O)CN)C(N)=O [(A^7,10)1-12] (H-GE[Gla][Gla]LQANQALI-NH2; N-terminus assumed) | 300 nM | – | – |
| CC[C@H](C)[C@H](NC(=O)[C@H](CC(C)C)NC(=O)[C@H](CCC(=O)O)NC(=O)[C@H](CCC(N)=O)NC(=O)[C@H](CC(N)=O)NC(=O)[C@H](CCC(=O)O)NC(=O)[C@H](CCC(N)=O)NC(=O)[C@H](CC(C)C)NC(=O)[C@H](CCC(=O)O)NC(=O)[C@H](CCC(=O)O)NC(=O)[C@H](CCC(=O)O)NC(=O)CN)C(=O)N[C@@H](CCCNC(=N)N)C(=O)N[C@@H](CCC(=O)O)C(=O)N[C@@H](CCCCN)C(=O)N[C@@H](CO)C(=O)N[C@@H](CC(N)=O)C(N)=O [ECon G] | – | 1.6 min | 0.425 min |
| CC[C@H](C)[C@H](NC(=O)[C@H](CC(C)C)NC(=O)[C@H](CC(C(=O)O)C(=O)O)NC(=O)[C@H](CCC(N)=O)NC(=O)[C@H](CC(N)=O)NC(=O)[C@H](CC(C(=O)O)C(=O)O)NC(=O)[C@H](CCC(N)=O)NC(=O)[C@H](CC(C)C)NC(=O)[C@H](CCC(=O)O)NC(=O)[C@H](CC(C(=O)O)C(=O)O)NC(=O)[C@H](CCC(=O)O)NC(=O)CN)C(=O)N[C@@H](CCCNC(=N)N)C(=O)N[C@@H](CC(C(=O)O)C(=O)O)C(=O)N[C@@H](CCCCN)C(=O)N[C@@H](CO)C(=O)N[C@@H](CC(N)=O)C(N)=O [E^4] | ≥ 20000 nM | – | – |
| CC[C@H](C)[C@H](NC(=O)[C@H](CC(C)C)NC(=O)[C@H](Cc1ccc(O)cc1)NC(=O)[C@H](CCC(N)=O)NC(=O)[C@H](CC(N)=O)NC(=O)[C@H](C)NC(=O)[C@H](CCC(N)=O)NC(=O)[C@H](CC(C)C)NC(=O)[C@H](CC(C(=O)O)C(=O)O)NC(=O)[C@H](CC(C(=O)O)C(=O)O)NC(=O)[C@H](CCC(=O)O)NC(=O)CN)C(=O)N[C@@H](CCCNC(=N)N)C(=O)N[C@@H](CC(C(=O)O)C(=O)O)C(=O)N[C@@H](CCCCN)C(=O)N[C@@H](CO)C(=O)N[C@@H](CC(N)=O)C(N)=O [A^7,Y^10] (H-GE[Gla][Gla]LQANQYLIR[Gla]KSN-NH2; N-terminus assumed) | 79 nM | – | – |
